The results in this text go back to PMC9841525, “Chemical Blockage of the Mitochondrial Rhomboid Protease PARL by Novel Ketoamide Inhibitors Reveals Its Role in PINK1/Parkin-Dependent Mitophagy” (Journal of Medicinal Chemistry, 2022).

*1 amine or outer side, *2 acyl side, *3 side chain or, on linkers, in order; H or OH if unused. Where a SMILES comes first, the peptide text is derived from it. [ ]: non-standard residue; d: D form. The star is where a group is joined. NH(4-phenylbutyl) = c1ccc(CCCCN*)cc1; X1 = C[C@H](N[*:1])C(=O)C(=O)[*:2]

This assay concerns Parkin. Nature of the assay: Parkin recruitment to mitochondria, subcellular fractionation and immunoblot. Conditions: HEK293 T-REx PINK1 cells, HA-Parkin-IRES-GFP; 5 μM compound 5, CCCP 10 μM or Antimycin A 30 μM. The format is cell-based, human. Here is the method: Inducible stable Flp-In HEK293 T-REx cells expressing PINK1 were described previously.[33] HEK293 T-REx PINK1 and HEK293T cells were grown in DMEM (Gibco) supplemented with 10% (v/v) fetal bovine serum (ThermoFisher), 1% (v/v) GlutaMAX (Gibco), 1% (v/v) sodium pyruvate (Gibco), 125 μg/mL hygromycin (Invitrogen), and 10 μg/mL blasticidin (Gibco) or DMEM supplemented with 10% (v/v) fetal bovine serum, respectively, at 37 °C in 5% (v/v) CO2. For microscopy, cells were seeded on poly-L-lysine (Sigma)-coated slides. Transient plasmid transfections were performed using 25 kDa linear polyethylenimine (Polysciences). Plasmid (100 ng) encoding HA-Parkin-IRES-GFP, mito-mCherry or Parkin-mEGFP, or 500 ng plasmid encoding PGAM5-FLAG were used per 6-well. Total transfected DNA was 2 μg/well. For siRNA transfection, 2 × 10^5 cells were seeded per 6-well and on the next day transfected with 20 nM siRNA-oligonucleotide using lipofectamine RNAiMAX (ThermoFisher). Cells were analyzed 27 h post-transfection or five days post-siRNA-transfection. HEK293 T-REx PINK1 cells were induced with 0.3 μg/mL doxycycline for 24 h before further processing. Hoechst staining (1 μg/mL) was done immediately before adding treatment to the cells. Treatments were administered for the indicated times before processing; CCCP (Sigma) was always used as 10 μM for 3 h and Antimycin A (Sigma) as 30 μM for 3 h.
Unless mentioned otherwise, all steps were performed at 4 °C. For subcellular fractionation to separate cellular content into cytosolic and mitochondrial fractions, cells were washed with PBS, harvested in PBS-EDTA (1 mM EDTA, 0.2 g/L D-glucose), and centrifuged at 500 × g for 5 min. […]
For immunoblot analysis in other cases, cells were either processed as described above or washed with PBS and directly lysed with Tris-glycine SDS-PAGE sample buffer and heated for 15 min at 65 °C. […] For quantification, ImageJ was used (http://rsb.info.nih.gov/ij/). […]
Background: Immunoblotting shows a protein as a band on a membrane.

Take `CC(=O)N[C@@H](C)C(=O)N[C@H](C(=O)N[C@@H](Cc1ccccc1)C(=O)N[C@@H](CC(C)C)C(=O)N[C@@H](C)C(=O)C(=O)NCCCCc1ccccc1)C(C)C` [compound 5] (Ac-AVFL[X1]-{NH(4-phenylbutyl)}): the “Parkin recruitment to the mitochondrial fraction” value is on record as “Parkin recruitment to the mitochondrial fraction, albeit in a lower quantity than in the two chemically induced stress conditions”.
